# Test results reported in patent publication US20230277449A1, “ORAL CAVITY POLYMERIC DELIVERY SYSTEMS” (YISSUM RESEARCH DEVELOPMENT COMPANY OF THE HEBREW …, priority 2020, published 2023).
# How the values were obtained:
# [1] = APO release from hydrogel-based core through dialysis bag; assay type: physicochemical; conditions: 20 mg APO in 0.5 ml hydrogel pH 5.9, dialysis bag
# Procedure: DDW. 100.0, 120.0 or 150 mg fish gelatin were added. No gelatin was added to the fourth group. All work was done in triplicates. After vigorous stirring full dissolution to homogenous solution was achieved. The pH of the solutions was adjusted to 5.9 by H3PO4 and KOH. 0.5 ml of each solution was introduced into dialysis bag (Specta/PorⓇDialysis membrane, MWCO 25000, flat width 12 mm). The bags were submerged into a beaker with 100 ml 0.1% ascorbic acid solution adjusted to pH 5.9 by NaOH and HCl. The solutions were held at 34° C. (±1) with constant stirring. 100 µl samples were taken at time points 0, 10, 25, 40, 60, 90, 120, 150 and 180 min into a vial containing 1 µl of 10%^v/v mercaptoethanol ethanolic solution. 100 µl of fresh receiving solution was added to the beaker to retain sink conditions. […]
# 2.1.4 Chromatographic analysis of in-vitro samples: The samples were injected into Waters 2695 Separation Module HPLC system coupled with Waters 2475 Multi Gamma Fluorescence Detector (Waters Co., MA, USA), into BDS Hypersil Cyano (Phenomenex, CA, USA) column (5 µm, 100 Å, 250 mm × 4.6 mm) protected by Hypersil Cyano (Phenomenex, CA, USA) pre-column (5 µm, 4 mm × 10 mm). […] Linearity curve (2.5-250 µg/ml, R^2>0.997) was performed before the batch of samples and used for quantification.
# [2] = Ex-vivo permeability of APO, MTP and ATN in Ussing diffusion chamber; assay type: in vitro ADME, pig; conditions: pH 7.4 with addition of 10% v/v NLF
# [3] = In-vivo permeability study on rats (buccal administration)
# [4] = Ex-vivo - in-vivo correlation (Jss and Css calculated from Papp for pig)
# Procedure: where dQ/dt is the amount of test substance permeated over time and A is the area of buccal mucosa available for permeation. Plasma levels at steady state (Css) of the test substance following in-vivo buccal administration are calculated by Eq. 2:
# Apparent permeability (Papp) is calculated by Eq. 3:
# where Co is the initial concentration of the test substance near the buccal mucosa in the ABPD at the beginning of the experiment.
structure (smiles),measurement,setting,value
"CN1CCc2cccc3c2[C@H]1Cc1ccc(O)c(O)c1-3 [APO, apomorphine]",time at which all APO dose was released,[1],1.5 h
same,lag-time,[2],3 h
same,APO in the plasma,"[3]; buccal solution, three anesthetized rats, 8 h",not detected
same,APO concentration in the solution inside the delivery device at 8 h vs initial,[3]; rats,did not change
same,ex-vivo predicted Css lower than in-vivo Css,[4],4 times
same,Jss calculated,"[4]; pH 5.9, 40 mg/ml APO in hydrogel, Eq. 3",0.073 mg/(cm^2*h)
same,Css calculated from ex-vivo Papp,"[4]; pig of 43 kg, 4.74 cm^2, Eq. 2",0.59 ng/mL
